Measured values: patent US9834548B2, “Pyridazine compounds as JAK inhibitors” (Portola Pharmaceuticals, Inc., priority 2014, dated 2017)
Read-outs that look alike come from different tables or passages of the source.

What was measured:
JAK1 = JAK1 (Homo sapiens (Human), UniProt P23458); experiment: Purified kinase assay (Z'-LYTE), JAK1; type: biochemical
Method in brief: (§1)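 Catalytic-domain recombinant kinase with Tyr6 peptide (a separate Tyr6 kit for TYK2) and ATP, 1% DMSO final, reacted 1 h at room temperature. Z′-LYTE FRET read after 1 h protease development (ex 400, em 445/520 nm). Inhibition computed from percent substrate phosphorylation versus no inhibitor; IC50 from 4-parameter logistic fit.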

JAK2 = JAK2 (Homo sapiens (Human), UniProt O60674); experiment: Purified kinase assay (Z'-LYTE), JAK2; type: biochemical
Method in brief: as §1

JAK3 = JAK3 (Homo sapiens (Human), UniProt P52333); experiment: Purified kinase assay (Z'-LYTE), JAK3; type: biochemical
Method in brief: as §1

TYK2 = TYK2 (Homo sapiens (Human), UniProt P29597); experiment: Purified kinase assay (Z'-LYTE), TYK2; type: biochemical
Method: JAK and TYK2 tyrosine phosphorylation activity is measured using the Z′-LYTE™ Technology developed by Invitrogen Corporation (Carlsbad, Calif.). For JAK1, JAK2 and JAK3 the Z′-LYTE™ Kinase Assay Kit-Tyr6 Peptide (part number PV4122) was used. For TYK2 the Z′-LYTE™ Kinase Assay Kit-Tyr6 Peptide (part number PV3192) was used. The Z′-LYTE™ biochemical assay employs a fluorescence resonance energy transfer (FRET) coupled-enzyme format and is based on the differential sensitivity of phosphorylated and non-phosphorylated peptides to proteolytic cleavage. The assay uses a synthetic peptide substrate that is labeled with a donor fluorophore (coumarin) and an acceptor fluorophore (fluorescein) that make up a FRET pair. In the primary reaction (the Kinase Reaction), the kinase transfers the γ-phosphate of ATP to a single tyrosine residue on the substrate, while the presence of a kinase inhibitor in the primary reaction suppresses phosphorylation. In the secondary reaction (the Development Reaction), a site-specific protease (the Development Reagent) is added. The development buffer quenches the Kinase Reaction, while the protease recognizes and cleaves non-phosphorylated Z′-LYTE™ peptide substrate. Cleavage disrupts FRET between the donor and acceptor fluorophores on the non-phosphorylated substrate, while uncleaved, phosphorylated substrate maintains FRET.
To test the ability of candidate molecules to inhibit JAK tyrosine phosphorylation activity, molecules are reconstituted in 100% DMSO and serially diluted 1:10 in polypropylene v-bottom microtiter plates. The candidate molecules are then diluted 1:25 into kinase buffer and 2.5 μl transferred into duplicate wells of a 384 well low volume black microtiter assay plate (Corning, USA). The final DMSO concentration in the assay is 1%. The kinase reaction contains 2.5 μl of a candidate molecule, 5 μl of catalytic domain recombinant Kinase enzyme+Tyr peptide substrate (Invitrogen, CA) and ATP (Invitrogen, CA). The kinase reaction is allowed to proceed for 1 hour at room temperature. The protease reaction is initiated by the addition of Development Reagent (Invitrogen, CA). After 1 hour incubation at room temperature the fluorescence is measured using a FlexStation plate reader (Molecular Devices, Sunnyvale, Calif.). The reader settings used are as follows: Fluorescence mode, endpoint, top read, excitation 400 nm, emission 445 nm and 520 nm, Auto Cutoff 435 nm and 515 nm, PMT sensitivity high, 6 reads per well Inhibition of JAK activity is calculated as the percent phosphorylation of substrate in the presence of inhibitor compared to the percent phosphorylation of substrate in the absence of inhibitor. IC50's were derived using Xlfit 4.3 (IDBS, UK), 4 parameter logistic model 205: Y=(A+((B−A)/(1+((C/x)^D)))).

[1] = test system: JAK3/JAK1 (IL2-STAT5 in PBMC); experiment: Intracellular STAT5 phosphorylation following IL2 stimulation of PBMC (JAK3/JAK1 cellular assay); type: cell-based; settings: Homo sapiens, read-out: IL2-STAT5 percent inhibition of STAT phosphorylation
Method: Human whole blood was collected into lithium heparin vacutainer tubes from the antecubital vein of human subjects. Peripheral blood mononuclear cells (PBMC) were prepared by layering 10 ml anti-coagulated blood over 5 ml lymphoprep in a 15 ml conical tube and centrifugation for 20 minutes at 400×g in a swinging bucket rotor. The lymphocyte layer was removed, washed twice in tissue culture media (RPMI containing 10% fetal bovine serum) prior to re-suspension in the same media at 2×10^6 cells/ml. 100 μl aliquots of PMBCs were incubated for 1 h at 37° C. with various concentrations of JAK inhibitors prior to stimulation for 15 minutes with 1.5 ng/ml of IL2 or IL4. The reaction was terminated by the addition of 60 μl 16% paraformaldehyde, followed by incubation at room temperature for 10 minutes. Fixed cells were washed twice in PBS, and then re-suspended in −20° C. 50% methanol diluted in PBS and stored at 4° C. overnight. Following permeabilization of the cell membrane in methanol, cells were washed twice in PBS containing 1% BSA and PBMCs were re-suspended in the same buffer containing CD3 and STAT5 Y694 specific antibodies (IL2 stimulations) or CD3, CD14, CD19, and STAT6 Y641 specific antibodies (IL4 stimulations) for 1 hour at room temperature. Cells were then washed and re-suspended in PBS/BSA buffer and assessed by flow cytometry (LSRII; BD Biosciences) for effect of JAK inhibitors on cytokine mediated STAT phosphorylation.
Percent inhibition of STAT phosphorylation in the cellular assays is provided for the compounds at the given concentrations.

Chain of JAK2 (O60674 849-1124): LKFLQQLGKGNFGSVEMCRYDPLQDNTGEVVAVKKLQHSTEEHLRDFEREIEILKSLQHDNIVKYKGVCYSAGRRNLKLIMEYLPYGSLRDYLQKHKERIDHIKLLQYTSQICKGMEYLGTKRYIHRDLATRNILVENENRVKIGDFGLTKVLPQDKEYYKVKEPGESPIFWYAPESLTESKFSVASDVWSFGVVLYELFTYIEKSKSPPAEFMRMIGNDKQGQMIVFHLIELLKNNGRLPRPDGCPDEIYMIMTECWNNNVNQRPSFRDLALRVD
Chain of TYK2 (P29597 897-1176): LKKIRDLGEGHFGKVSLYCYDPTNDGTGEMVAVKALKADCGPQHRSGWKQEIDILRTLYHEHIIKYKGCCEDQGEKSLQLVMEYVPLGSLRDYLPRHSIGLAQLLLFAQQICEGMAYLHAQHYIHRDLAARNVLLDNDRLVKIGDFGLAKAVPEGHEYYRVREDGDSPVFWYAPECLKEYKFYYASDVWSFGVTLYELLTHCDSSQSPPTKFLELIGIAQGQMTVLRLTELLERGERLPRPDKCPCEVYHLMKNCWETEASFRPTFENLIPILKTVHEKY
Chain of JAK3 (P52333 822-1111): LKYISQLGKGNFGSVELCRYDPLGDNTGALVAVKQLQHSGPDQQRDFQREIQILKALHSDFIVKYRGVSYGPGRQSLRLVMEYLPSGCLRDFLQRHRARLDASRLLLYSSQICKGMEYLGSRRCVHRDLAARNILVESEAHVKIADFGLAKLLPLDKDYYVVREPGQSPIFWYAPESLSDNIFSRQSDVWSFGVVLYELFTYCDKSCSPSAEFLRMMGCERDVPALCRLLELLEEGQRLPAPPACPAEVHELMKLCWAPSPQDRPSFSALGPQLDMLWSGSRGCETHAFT
Chain of JAK1 (P23458 875-1153): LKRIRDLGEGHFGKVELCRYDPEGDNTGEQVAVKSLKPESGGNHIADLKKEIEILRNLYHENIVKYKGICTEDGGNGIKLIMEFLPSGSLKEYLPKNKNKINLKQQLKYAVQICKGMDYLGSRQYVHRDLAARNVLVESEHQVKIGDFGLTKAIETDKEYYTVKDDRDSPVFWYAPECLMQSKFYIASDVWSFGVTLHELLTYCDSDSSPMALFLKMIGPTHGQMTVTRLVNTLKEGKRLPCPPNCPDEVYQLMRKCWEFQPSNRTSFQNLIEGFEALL

SMILES | IC50 (JAK1; Table 1, read-out: JAK1 IC50) [µM] | IC50 (JAK2; Table 1, read-out: JAK2 IC50) [µM] | IC50 (JAK3; Table 1, read-out: JAK3 IC50) [µM] | IC50 (TYK2; Table 1, read-out: Tyk2 IC50) [µM] | IC50 (JAK1; Table 2, read-out: JAK1) [µM] | IC50 (JAK2; Table 2, read-out: JAK2) [µM] | IC50 (JAK3; Table 2, read-out: JAK3) [µM] | inhibition at 0.2 µM [1] [%] | inhibition at 1 µM [1] [%] | IC50 (TYK2; Table 2, read-out: TYK2) [µM]
CCC(=O)N1CCN(c2ccc(Nc3cc(NCc4ccccc4F)c(C(N)=O)nn3)cc2)CC1 [Compound 29] | > 1 | 0.1 to 1 | 0.01 to 0.1 | 0.1 to 1 | – | – | – | – | – | –
CS(=O)(=O)Cc1ccc(Nc2cc(NCc3cccc(F)c3F)c(C(N)=O)nn2)cc1 [Compound 89] | 0.1 to 1 | 0.1 to 1 | 0.001 to 0.01 | 0.1 to 1 | – | – | – | – | – | –
CC(=O)N1CCN(c2ccc(Nc3cc(NCc4cccc5[nH]ccc45)c(C(N)=O)nn3)cc2)CC1 [Compound 109] | 0.01 to 0.1 | 0.01 to 0.1 | < 0.001 | – | 0.01 to 0.1 | 0.01 to 0.1 | 0.001 to 0.01 | 69 | 95 | –
CC(=O)N1CCN(c2ccc(Nc3cc(NCc4cccc(F)c4)c(C(N)=O)nn3)cc2)CC1 [Compound 19] | > 1 | 0.1 to 1 | 0.001 to 0.01 | 0.1 to 1 | – | – | – | – | – | –
Cc1cc(Nc2cc(NCc3cccc(F)c3)c(C(N)=O)nn2)ccc1C(=O)N(C)C [Compound 60] | > 1 | 0.1 to 1 | 0.01 to 0.1 | > 1 | – | – | – | – | – | –
CC(=O)N1CCN(c2ccc(Nc3cc(NCc4ccccc4F)c(C(N)=O)nn3)cc2)CC1 [Compound 18, 6-((4-(4-acetylpiperazin-1-yl)phenyl)amino)-4-((2-fluorobenzyl)amino)pyridazine-3-carboxamide] | 0.1 to 1 | 0.1 to 1 | 0.001 to 0.01 | 0.1 to 1 | > 1 | 0.1 to 1 | 0.001 to 0.01 | – | – | 0.1 to 1
CC(=O)N1CCN(c2ccc(Nc3cc(NCc4ccccc4)c(C(N)=O)nn3)cc2)CC1 [Compound 5, 6-((4-(4-acetylpiperazin-1-yl)phenyl)amino)-4-(benzylamino)-pyridazine-3-carboxamide] | > 1 | 0.1 to 1 | 0.01 to 0.1 | 0.1 to 1 | – | – | – | – | – | –
CC(=O)N1CCN(c2ccc(Nc3cc(NCc4cccc5ccsc45)c(C(N)=O)nn3)cc2)CC1 [Compound 98] | 0.1 to 1 | 0.01 to 0.1 | 0.001 to 0.01 | > 1 | > 1 | 0.01 to 0.1 | 0.001 to 0.01 | 13 | 64 | > 1
CN(C)C(=O)c1ccc(Nc2cc(NCc3cccc(F)c3)c(C(N)=O)nn2)cc1 [Compound 59] | > 1 | 0.1 to 1 | 0.01 to 0.1 | > 1 | – | – | – | – | – | –
NC(=O)c1nnc(Nc2ccc(N3CCNCC3)cc2)cc1NCc1cccc2ccsc12 [Compound 99] | 0.1 to 1 | 0.01 to 0.1 | 0.001 to 0.01 | 0.1 to 1 | – | – | – | – | – | –
Cc1cc(Nc2cc(NCc3cccc(F)c3)c(C(N)=O)nn2)ccc1C(=O)N1CCCC1 [Compound 61] | > 1 | 0.01 to 0.1 | 0.001 to 0.01 | 0.1 to 1 | – | – | – | – | – | –
CC(=O)Nc1cccc(Nc2cc(NCc3cccc(F)c3)c(C(N)=O)nn2)c1 [Compound 65] | > 1 | 0.1 to 1 | 0.01 to 0.1 | 0.1 to 1 | – | – | – | – | – | –
CC(=O)N1CCN(c2ccc(Nc3cc(NCc4ccccc4C)c(C(N)=O)nn3)cc2)CC1 [Compound 23] | 0.1 to 1 | 0.1 to 1 | 0.001 to 0.01 | 0.1 to 1 | – | – | – | – | – | –
CC(=O)N1CCN(c2ccc(Nc3cc(NCc4cccs4)c(C(N)=O)nn3)cc2)CC1 [Compound 21] | > 1 | 0.1 to 1 | 0.01 to 0.1 | 0.1 to 1 | – | – | – | – | – | –
Cc1cc(Nc2cc(NCc3cccc(F)c3F)c(C(N)=O)nn2)ccc1C(=O)N1CCCC1 [Compound 42] | 0.1 to 1 | 0.01 to 0.1 | 0.001 to 0.01 | 0.1 to 1 | – | – | – | – | – | –
CC(=O)N1CCN(c2ccc(Nc3cc(NC4(c5ccccc5)CC4)c(C(N)=O)nn3)cc2)CC1 [Compound 57] | > 1 | > 1 | 0.01 to 0.1 | > 1 | – | – | – | – | – | –
Cn1cc(Nc2cc(NCc3cccc(F)c3)c(C(N)=O)nn2)cn1 [Compound 66] | > 1 | 0.1 to 1 | 0.01 to 0.1 | > 1 | – | – | – | – | – | –
NC(=O)c1nnc(Nc2cccc(OCCN3CCCC3)c2)cc1NCc1cccc(F)c1 [Compound 56] | > 1 | 0.1 to 1 | 0.01 to 0.1 | > 1 | – | – | – | – | – | –
COc1cccc(CNc2cc(Nc3ccc(N4CCN(C(C)=O)CC4)cc3)nnc2C(N)=O)c1 [Compound 58] | > 1 | 0.1 to 1 | 0.01 to 0.1 | > 1 | – | – | – | – | – | –
